# Earlier results in PMC6768041 (Chemistry Central Journal, 2018).
# Legend:
# hMAO-A = target: T1, hMAO-A (Homo sapiens, UniProt P21397); conditions: cited from earlier work
# T1 construct: host or cells: insect cells (BTI-TN-5B14), recombinant baculovirus
# T1 sequence (P21397 1-527): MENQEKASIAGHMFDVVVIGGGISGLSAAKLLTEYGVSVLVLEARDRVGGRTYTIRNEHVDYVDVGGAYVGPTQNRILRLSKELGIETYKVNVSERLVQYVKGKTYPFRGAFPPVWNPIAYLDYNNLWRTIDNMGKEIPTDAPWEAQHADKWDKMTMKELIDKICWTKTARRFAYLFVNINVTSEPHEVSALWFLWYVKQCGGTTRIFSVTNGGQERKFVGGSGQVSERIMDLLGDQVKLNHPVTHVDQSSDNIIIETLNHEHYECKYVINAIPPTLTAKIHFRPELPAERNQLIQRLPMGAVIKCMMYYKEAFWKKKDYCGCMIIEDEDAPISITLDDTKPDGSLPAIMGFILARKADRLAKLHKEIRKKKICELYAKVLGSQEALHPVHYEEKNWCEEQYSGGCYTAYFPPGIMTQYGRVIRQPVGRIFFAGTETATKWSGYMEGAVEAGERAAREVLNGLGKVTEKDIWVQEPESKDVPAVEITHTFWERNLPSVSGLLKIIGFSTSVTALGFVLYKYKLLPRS
# hMAO-B = target: T2, hMAO-B (Homo sapiens, UniProt P27338); set-up: method as in PMID 26592858; conditions: cited from earlier work
# T2 construct: host or cells: insect cells (BTI-TN-5B14), recombinant baculovirus
# T2 sequence (P27338 1-520): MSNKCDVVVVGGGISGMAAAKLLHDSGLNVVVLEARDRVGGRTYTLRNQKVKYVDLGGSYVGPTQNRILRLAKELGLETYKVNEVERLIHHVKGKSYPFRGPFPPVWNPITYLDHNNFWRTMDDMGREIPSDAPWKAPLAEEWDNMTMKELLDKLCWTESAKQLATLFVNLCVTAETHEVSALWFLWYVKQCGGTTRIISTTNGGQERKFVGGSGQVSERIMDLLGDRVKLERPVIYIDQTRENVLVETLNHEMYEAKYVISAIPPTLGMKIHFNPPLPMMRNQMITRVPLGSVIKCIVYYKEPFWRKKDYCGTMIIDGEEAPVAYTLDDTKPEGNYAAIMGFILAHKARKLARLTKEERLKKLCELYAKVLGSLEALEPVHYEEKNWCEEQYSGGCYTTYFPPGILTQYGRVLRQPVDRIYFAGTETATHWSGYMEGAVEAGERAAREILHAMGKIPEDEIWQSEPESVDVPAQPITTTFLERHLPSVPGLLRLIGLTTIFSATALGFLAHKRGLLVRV
structure (smiles),measurement,setting,value
COc1cc(/C=C/C(=O)O)ccc1O [Ferulic acid],MAO inhibition value hMAO-A,hMAO-A,7.55 ± 0.49 µM
same,MAO inhibition value hMAO-B,hMAO-B,24.00 ± 1.98 µM
